Values after ≈ are worked out from the molar mass of the structure shown. Values joined by “and” are separate entries in the source; they are usually repeats but may differ in a detail not shown here. Equal entries are not always repeated. Where two headings read alike, the source gives them in different places.
Experiments:
P. multocida = assay: In vitro antibacterial activity, broth microdilution MIC (CLSI M31-A2); type: cell-based, Pasteurella multocida
Procedure: (§1) Hereinafter, a description is made of an evaluation method for the compound. The compound was measured for its in vitro antibacterial activity by a broth microdilution method in accordance with a CLSI method (formerly NCCLS method, […]-A2) (Performance Standards for Antimicrobial Disk and Dilution Susceptibility Tests for Bacteria Isolated from Animals; Approved Standard-Second Edition NCCLS […]-A2 Vol. 22 No. 6 2002). A medium used was BBL Mueller Hinton II broth supplemented with lysed horse blood and NAD. A test drug solution at each concentration level obtained by dissolving a test drug in ethanol and then diluting the resultant with the liquid medium described above was dispensed into a 96-well microplate, and a test bacterial strain was inoculated. After having been cultured in the presence of 5% CO2 at 37° C. for 20 to 24 hours, the test bacterial strain was visually observed for the presence or absence of its growth. A minimum drug concentration completely inhibiting the growth of the test bacterial strain was defined as a minimum inhibitory concentration (hereinafter, referred to as MIC). The compound obtained in the present invention was measured for its in vitro antibacterial activity by a broth microdilution method in accordance with a CLSI method (formerly NCCLS method, […]-A2) (Performance Standards for Antimicrobial Disk and Dilution Susceptibility Tests for Bacteria Isolated from Animals; Approved Standard-Second Edition NCCLS […]-A2 Vol. 22 No. 6 2002). A medium composition used in the measurement is shown below. […] The resultant test drug solution was further subjected to two-step dilution with the liquid medium described above to prepare a test drug solution at each concentration level. The thus prepared test drug solution at each concentration level was dispensed into a 96-well microplate at 100 μL/well, and a test bacterial strain was inoculated at about 5×10^4 CFU/well. After having been cultured in the presence of 5% CO2 at 37° C. for 20 to 24 hours, the test bacterial strain was visually observed for the presence or absence of its growth. A minimum drug concentration completely inhibiting the growth of the test bacterial strain was defined as a minimum inhibitory concentration (hereinafter, referred to as MIC). […] Saponin was dissolved with purified water. The solution was sterilized and then added to defibrinated horse blood.

A. pleuropneumoniae = assay: as above; type: cell-based, Actinobacillus pleuropneumoniae
Procedure: as §1

M. haemolytica = assay: as above; type: cell-based, Mannheimia haemolytica
Procedure: as §1

H. somni = assay: as above; type: cell-based, Histophilus somni
Procedure: as §1

H. parasuis = assay: as above; type: cell-based, Haemophilus parasuis
Procedure: as §1

[1] = tested on: main pathogens of bacterial respiratory tract infections in livestock animals such as cattle and swine; type: cell-based
[2] = Pasteurella multocida, ATCC43019, P. multocida (bovine) strain ATCC43019, read-out: MIC
[3] = Pasteurella multocida, ATCC43137, P. multocida (swine) strain ATCC43137, read-out: MIC
[4] = Pasteurella multocida, P. multocida (bovine) strain 11272, read-out: MIC
[5] = Pasteurella multocida, P. multocida (bovine) strain 11325-1, read-out: MIC
[6] = Pasteurella multocida, P. multocida (bovine) strain 11787-24, read-out: MIC
[7] = Pasteurella multocida, P. multocida (swine) strain 11587-3, read-out: MIC
[8] = Pasteurella multocida, P. multocida (swine) strain 11745-15, read-out: MIC
[9] = Actinobacillus pleuropneumoniae, A. pleuropneumoniae strain 10895-2, read-out: MIC
[10] = Actinobacillus pleuropneumoniae, A. pleuropneumoniae strain 11684-7, read-out: MIC
[11] = Actinobacillus pleuropneumoniae, A. pleuropneumoniae strain 11796-1, read-out: MIC
[12] = Actinobacillus pleuropneumoniae, A. pleuropneumoniae strain 11804-2, read-out: MIC
[13] = Actinobacillus pleuropneumoniae, ATCC27089, A. pleuropneumoniae strain ATCC27089, read-out: MIC
[14] = Mannheimia haemolytica, M. haemolytica strain 11443, read-out: MIC
[15] = Mannheimia haemolytica, M. haemolytica strain 11467-2, read-out: MIC
[16] = Histophilus somni, H. somni strain 11321, read-out: MIC
[17] = Histophilus somni, H. somni strain 11423-3, read-out: MIC
[18] = Glaesserella parasuis, H. parasuis strain 11510-1, read-out: MIC
[19] = Glaesserella parasuis, H. parasuis strain 11640-1, read-out: MIC

Compound	MIC (P. multocida; [2]) [µg/mL]	MIC (P. multocida; [3]) [µg/mL]	MIC (P. multocida; [4]) [µg/mL]	MIC (P. multocida; [5]) [µg/mL]	MIC (P. multocida; [6]) [µg/mL]	MIC (P. multocida; [7]) [µg/mL]	MIC (P. multocida; [8]) [µg/mL]	MIC (A. pleuropneumoniae; [9]) [µg/mL]	MIC (A. pleuropneumoniae; [10]) [µg/mL]	MIC (A. pleuropneumoniae; [11]) [µg/mL]	MIC (A. pleuropneumoniae; [12]) [µg/mL]	MIC (A. pleuropneumoniae; [13]) [µg/mL]	MIC (M. haemolytica; [14]) [µg/mL]	MIC (M. haemolytica; [15]) [µg/mL]	MIC (H. somni; [16]) [µg/mL]	MIC (H. somni; [17]) [µg/mL]	MIC (H. parasuis; [18]) [µg/mL]	MIC (H. parasuis; [19]) [µg/mL]	other results
CO[C@@H]1C(OC2O[C@@H](C)C(O)C(N(C)C)C2O)[C@@H](CC=O)C[C@@H](C)[C@@H](OC(C)=O)/C=C/[C@@H](N(C)CCCc2ccnc3ccccc23)[C@@H](O)C[C@@H](C)OC(=O)C[C@H]1OC(C)=O (stereo partly shown) [Compound of formula (I)]	4	4	4	2	4	4	4	4	32	4	8	4	4	4	0.5	1	0.5	4	MIC corresponding to an activity enhanced as compared to josamycin [1]: approximately 8 fold; MIC corresponding to an activity enhanced as compared to tulathromycin [1]: ≥ 4 fold; antibacterial activities as compared to the existing drugs [1]: remarkably strong antibacterial activities
CO[C@@H]1[C@@H](O[C@@H]2O[C@H](C)[C@@H](O[C@H]3C[C@@](C)(O)[C@@H](OC(=O)CC(C)C)[C@H](C)O3)[C@H](N(C)C)[C@H]2O)[C@@H](CC=O)C[C@@H](C)[C@@H](O)/C=C/C=C/C[C@@H](C)OC(=O)C[C@H]1OC(C)=O [JM, josamycin]	64 (≈ 77.3 µM)	32 (≈ 38.6 µM)	16 (≈ 19.3 µM)	8 (≈ 9.66 µM)	32 (≈ 38.6 µM)	32 (≈ 38.6 µM)	32 (≈ 38.6 µM)	32 (≈ 38.6 µM)	64 (≈ 77.3 µM)	16 (≈ 19.3 µM)	8 (≈ 9.66 µM)	16 (≈ 19.3 µM)	16 (≈ 19.3 µM)	32 (≈ 38.6 µM)	2 (≈ 2.42 µM)	8 (≈ 9.66 µM)	8 (≈ 9.66 µM)	32 (≈ 38.6 µM)	–
CCCNC[C@]1(O)[C@H](C)O[C@@H](O[C@H]2[C@H](C)[C@@H](O[C@@H]3O[C@H](C)C[C@H](N(C)C)[C@H]3O)[C@](C)(O)C[C@@H](C)CN[C@H](C)[C@@H](O)[C@](C)(O)[C@@H](CC)OC(=O)[C@@H]2C)C[C@@]1(C)OC [TLM, tulathromycin]	–	–	–	–	–	–	–	–	–	–	–	–	–	–	–	–	–	–	MIC (P. multocida; P. multocida (bovine) strain 11272): 16 µg/mL (≈ 19.8 µM); MIC (P. multocida; P. multocida (bovine) strain 11325-1): 4 µg/mL (≈ 4.96 µM); MIC (P. multocida; P. multocida (bovine) strain 11787-24): 8 µg/mL (≈ 9.92 µM); MIC (P. multocida; P. multocida (bovine) strain ATCC43019): 16 µg/mL (≈ 19.8 µM); MIC (P. multocida; P. multocida (swine) strain 11587-3): 16 µg/mL (≈ 19.8 µM); MIC (P. multocida; P. multocida (swine) strain 11745-15): 8 µg/mL (≈ 9.92 µM); MIC (P. multocida; P. multocida (swine) strain ATCC43137): 16 µg/mL (≈ 19.8 µM); MIC (A. pleuropneumoniae; A. pleuropneumoniae strain 10895-2): 16 µg/mL (≈ 19.8 µM); MIC (A. pleuropneumoniae; A. pleuropneumoniae strain 11684-7): 64 µg/mL (≈ 79.4 µM); MIC (A. pleuropneumoniae; A. pleuropneumoniae strain 11796-1): 16 µg/mL (≈ 19.8 µM); MIC (A. pleuropneumoniae; A. pleuropneumoniae strain 11804-2): 16 µg/mL (≈ 19.8 µM); MIC (A. pleuropneumoniae; A. pleuropneumoniae strain ATCC27089): 32 µg/mL (≈ 39.7 µM); MIC (M. haemolytica; M. haemolytica strain 11443): 16 µg/mL (≈ 19.8 µM); MIC (M. haemolytica; M. haemolytica strain 11467-2): 32 µg/mL (≈ 39.7 µM); MIC (H. somni; H. somni strain 11321): 1 µg/mL (≈ 1.24 µM); MIC (H. somni; H. somni strain 11423-3): 1 µg/mL (≈ 1.24 µM); MIC (H. parasuis; H. parasuis strain 11510-1): 4 µg/mL (≈ 4.96 µM); MIC (H. parasuis; H. parasuis strain 11640-1): 8 µg/mL (≈ 9.92 µM)
CC[C@H]1OC(=O)C[C@@H](O)[C@H](C)[C@@H](O[C@@H]2O[C@H](C)[C@@H](O)[C@H](N(C)C)[C@H]2O)[C@@H](CCN2C[C@H](C)C[C@H](C)C2)C[C@@H](C)C(=O)/C=C/C(C)=C/[C@@H]1CO[C@@H]1O[C@H](C)[C@@H](O)[C@@H](OC)[C@H]1OC [TMS, tilmicosin]	32 (≈ 36.8 µM)	16 (≈ 18.4 µM)	32 (≈ 36.8 µM)	16 (≈ 18.4 µM)	16 (≈ 18.4 µM)	16 (≈ 18.4 µM)	16 (≈ 18.4 µM)	16 (≈ 18.4 µM)	128 (≈ 147 µM)	16 (≈ 18.4 µM)	16 (≈ 18.4 µM)	16 (≈ 18.4 µM)	16 (≈ 18.4 µM)	8 (≈ 9.2 µM)	1 (≈ 1.15 µM)	4 (≈ 4.6 µM)	1 (≈ 1.15 µM)	16 (≈ 18.4 µM)	–
CC[C@H]1OC(=O)C[C@@H](O)[C@H](C)[C@@H](O[C@@H]2O[C@H](C)[C@@H](O[C@H]3C[C@@](C)(O)[C@@H](O)[C@H](C)O3)[C@H](N(C)C)[C@H]2O)[C@@H](CC=O)C[C@@H](C)C(=O)/C=C/C(C)=C/[C@@H]1CO[C@@H]1O[C@H](C)[C@@H](O)[C@@H](OC)[C@H]1OC [TS, tylosin]	64 (≈ 69.9 µM)	64 (≈ 69.9 µM)	64 (≈ 69.9 µM)	16 (≈ 17.5 µM)	32 (≈ 34.9 µM)	64 (≈ 69.9 µM)	64 (≈ 69.9 µM)	16 (≈ 17.5 µM)	256 (≈ 279 µM)	32 (≈ 34.9 µM)	32 (≈ 34.9 µM)	32 (≈ 34.9 µM)	16 (≈ 17.5 µM)	128 (≈ 140 µM)	1 (≈ 1.09 µM)	4 (≈ 4.37 µM)	4 (≈ 4.37 µM)	8 (≈ 8.73 µM)	–
aivlosin	–	–	–	–	–	–	–	–	–	–	–	–	–	–	–	–	–	–	MIC (P. multocida): 256 µg/mL and 128 µg/mL; MIC (A. pleuropneumoniae): 32 µg/mL and 64 µg/mL; MIC (M. haemolytica): 32 µg/mL and 64 µg/mL; MIC (H. parasuis): 16 µg/mL and 32 µg/mL

— patent publication US20140011757A1, “NOVEL MACROLIDE DERIVATIVE” (MEIJI SEIKA PHARMA CO., LTD., priority 2011, published 2014)
